In ChEMBL document CHEMBL1147724, “Synthesis and in vitro antileukemic activity of some new 1,3-(oxytetraethylenoxy)cyclotriphosphazene derivatives” (2006):
Converted amounts (≈) assume the structure as drawn. The source made the active and inactive calls. The rule behind the calls is not given here.

Key:
Type in all cases: functional
[1] = tested on: MOLT-4; assay: Antiproliferative activity against human MOLT4 cell line by MTT assay at 4 ug/ml; conditions: for IC50: read-out: ID50 (the source's name)
[2] = tested on: P388; assay: Antiproliferative activity against mouse P388 cell line by MTT assay at 4 ug/ml; conditions: for IC50: read-out: ID50 (the source's name)
[3] = tested on: BALB/3T3; assay: Antiproliferative activity against BALB/3T3 cell line by MTT assay at 4 ug/ml; conditions: Mus musculus; for IC50: read-out: ID50 (the source's name)
[4] = tested on: L1210; assay: Antiproliferative activity against mouse L1210 cell line by MTT assay at 4 ug/ml; conditions: for IC50: read-out: ID50 (the source's name)
[5] = tested on: HL-60; assay: Antiproliferative activity against human HL60 cell line by MTT assay at 4 ug/ml; conditions: for IC50: read-out: ID50 (the source's name)

SMILES	IC50 [1] [µg/mL]	IC50 [2] [µg/mL]	ID50 [3]	IC50 [4] [µg/mL]	IC50 [5] [µg/mL]	IC50 [3] [µg/mL]	ID50 [1]	ID50 [2]	ID50 [4]	ID50 [5]
O=C1c2ccccc2C(=O)c2c(NCCNP34=NP(NCCCl)(=NP(NCCCl)(NCCCl)=N3)OCCOCCOCCOCCO4)cccc21 (stereo not given)	27.2 (≈ 32.8 µM)	19.4 (≈ 23.4 µM)	inactive	29.3 (≈ 35.4 µM)	18.9 (≈ 22.8 µM)					
O=C1c2ccccc2C(=O)c2c(NCCNP34=NP(Oc5ccccc5/C=N\CCCl)(=NP(Oc5ccccc5/C=N\CCCl)(Oc5ccccc5/C=N\CCCl)=N3)OCCOCCOCCOCCO4)cccc21 (stereo not given)	3.08 (≈ 2.7 µM)	2.16 (≈ 1.89 µM)		2.69 (≈ 2.36 µM)	2.07 (≈ 1.81 µM)	9.54 (≈ 8.37 µM)				
O=Cc1ccccc1OP12=NP(Oc3ccccc3C=O)(Oc3ccccc3C=O)=NP(Oc3ccc4ccccc4c3)(=N1)OCCOCCOCCOCCO2 (stereo not given)	3.09 (≈ 3.71 µM)	2.55 (≈ 3.06 µM)	inactive	2.75 (≈ 3.3 µM)	2.81 (≈ 3.37 µM)					
O=Cc1ccccc1OP12=NP(Oc3ccccc3C=O)(=NP(Oc3ccccc3C=O)(Oc3ccccc3C=O)=N1)OCCOCCOCCOCCO2 (stereo not given)	3.2 (≈ 3.94 µM)	3.2 (≈ 3.94 µM)		3.2 (≈ 3.94 µM)	2.7 (≈ 3.33 µM)	12.1 (≈ 14.9 µM)				
ClCC/N=C\c1ccccc1OP12=NP(Oc3ccccc3/C=N\CCCl)(=NP(Oc3ccccc3/C=N\CCCl)(Oc3ccccc3/C=N\CCCl)=N1)OCCOCCOCCOCCO2 (stereo not given)	2.1 (≈ 1.99 µM)	3.2 (≈ 3.03 µM)		3.2 (≈ 3.03 µM)	2.9 (≈ 2.74 µM)	25.3 (≈ 23.9 µM)				
ClCC/N=C\c1ccccc1OP12=NP(Oc3ccccc3/C=N\CCCl)(Oc3ccccc3/C=N\CCCl)=NP(Oc3ccc4ccccc4c3)(=N1)OCCOCCOCCOCCO2 (stereo not given)	3.11 (≈ 3.05 µM)	2.7 (≈ 2.65 µM)	inactive	2.43 (≈ 2.39 µM)	2.89 (≈ 2.84 µM)					
O=C1c2ccccc2C(=O)c2c(NCCNP34=NP(Cl)(=NP(Cl)(Cl)=N3)OCCOCCOCCOCCO4)cccc21 (stereo not given)	29.6 (≈ 42.4 µM)	32.8 (≈ 46.9 µM)	inactive	52.8 (≈ 75.6 µM)	38.3 (≈ 54.8 µM)					
ClCCNP1(NCCCl)=NP2(NCCCl)=NP(NCCCl)(=N1)OCCOCCOCCOCCO2 (stereo not given)			inactive				inactive	inactive	inactive	inactive
O=Cc1ccccc1OP12=NP(Oc3ccccc3C=O)(Oc3ccccc3C=O)=NP(NCCNc3cccc4c3C(=O)c3ccccc3C4=O)(=N1)OCCOCCOCCOCCO2 (stereo not given)	1.14 (≈ 1.19 µM)	2.9 (≈ 3.03 µM)		2.42 (≈ 2.53 µM)	2.23 (≈ 2.33 µM)	33.2 (≈ 34.7 µM)				
